Reference: PMC8317467 (FASEB journal : official publication of the Federation of …, 2020)
Numbering of substitutions follows the chain as printed. “Also recorded” adds a separate entry of the source.

Columns and labels:
WT-ABCG2 = target: T1, WT-ABCG2 (Homo sapiens, UniProt Q9UNQ0); experiment: Membrane thermal shift, MEF membrane vesicles, WT-ABCG2; type: binding; conditions: 10 μM of ligand, 60 min at 37°C, heated 3 min at 65°C
T1 sequence (Q9UNQ0 1-655): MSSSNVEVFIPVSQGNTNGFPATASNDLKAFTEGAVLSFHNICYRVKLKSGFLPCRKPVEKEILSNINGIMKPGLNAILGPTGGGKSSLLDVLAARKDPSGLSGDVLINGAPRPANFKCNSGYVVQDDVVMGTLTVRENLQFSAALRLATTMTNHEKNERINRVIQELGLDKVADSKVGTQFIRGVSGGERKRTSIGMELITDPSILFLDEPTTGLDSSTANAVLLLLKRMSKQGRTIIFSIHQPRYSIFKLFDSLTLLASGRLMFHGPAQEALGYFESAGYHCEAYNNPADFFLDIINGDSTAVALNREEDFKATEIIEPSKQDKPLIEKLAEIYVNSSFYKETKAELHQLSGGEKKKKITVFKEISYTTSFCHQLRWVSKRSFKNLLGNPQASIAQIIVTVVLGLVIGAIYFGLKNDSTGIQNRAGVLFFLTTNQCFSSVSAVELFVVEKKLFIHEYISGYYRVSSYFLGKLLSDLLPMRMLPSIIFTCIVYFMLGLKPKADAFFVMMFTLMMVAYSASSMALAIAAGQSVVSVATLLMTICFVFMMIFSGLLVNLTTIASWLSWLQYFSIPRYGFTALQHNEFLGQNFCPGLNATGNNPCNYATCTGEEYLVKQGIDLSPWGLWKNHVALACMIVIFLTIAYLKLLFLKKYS

F439W-ABCG2 [1] = target: T2, F439W-ABCG2 (Homo sapiens, UniProt Q9UNQ0, F439W); experiment: Membrane thermal shift, MEF membrane vesicles, F439W; type: binding; conditions: 10 μM of Hoechst 33342, 60 min at 37°C
T2 sequence (Q9UNQ0 1-655 F439W): T1 sequence (Q9UNQ0 1-655) with F439W

F439Y-ABCG2 [2] = target: T3, F439Y-ABCG2 (Homo sapiens, UniProt Q9UNQ0, F439Y); experiment: Membrane thermal shift, MEF membrane vesicles, F439Y; type: binding; conditions: 10 μM of Hoechst 33342, 60 min at 37°C
T3 sequence (Q9UNQ0 1-655 F439Y): T1 sequence (Q9UNQ0 1-655) with F439Y

F439A-ABCG2 = target: T4, F439A-ABCG2 (Homo sapiens, UniProt Q9UNQ0, F439A); experiment: Transport assay; type: cell-based; conditions: 0.5 μM substrate
T4 sequence (Q9UNQ0 1-655 F439A): T1 sequence (Q9UNQ0 1-655) with F439A

F439W-ABCG2 [3] = target: T2, F439W-ABCG2; experiment: Transport assay; type: cell-based; conditions: 0.5 μM of Hoechst 33342, ± 10 μM of Lapatinib, 120 min
F439Y-ABCG2 [4] = target: T3, F439Y-ABCG2; experiment: Transport assay; type: cell-based; conditions: 0.5 μM of Hoechst 33342, ± 10 μM of Lapatinib, 120 min
F439A = conditions: ref 11 (Manolaridis et al); cited from earlier work
N436A = conditions: ref 11 (Manolaridis et al); cited from earlier work

Structure (SMILES)	thermal stabilization of WT-ABCG2 by ligand (WT-ABCG2)	thermal stabilization of F439W-ABCG2 by ligand (F439W-ABCG2 [1])	thermal stabilization of F439Y-ABCG2 by ligand (F439Y-ABCG2 [2])	transport of substrate by F439A-ABCG2 (F439A-ABCG2)	transport of substrate by F439W-ABCG2 (F439W-ABCG2 [3])	transport of substrate by F439Y-ABCG2 (F439Y-ABCG2 [4])	transport of substrate by F439A (F439A)	transport of substrate by N436A (N436A)
CCOc1ccc(-c2nc3ccc(-c4nc5ccc(N6CCN(C)CC6)cc5[nH]4)cc3[nH]2)cc1 [Hoechst 33342]	stabilized	stabilized	stabilized	incapable of transporting; also recorded: no net ABCG2 mediated transport	transport activity similar to WT-ABCG2	transport activity similar to WT-ABCG2		
C[C@]12CC[C@@H]3c4ccc(OS(=O)(=O)O)cc4CC[C@H]3[C@@H]1CCC2=O [estrone-3-sulfate]							could not transport	incapable
